Results published in patent US7803792B2, “Quaternary ammonium compounds” (Asahi Kasei Pharma Corporation, priority 2002, dated 2010).

How the values were obtained:
KKAy/Ta Jcl obese mice = experiment: Obesity and fatty liver model (Test Example 6); format: in vivo, mouse; conditions: average ± standard error; for Body Weight (g) 2 weeks later / Liver triglyceride / Body Weight (g) Variation amount: 1 mg/kg once a day for 2 weeks; for Liver triglyceride: controls 94 ± 18 / 103 ± 19; for Body Weight (g) Variation amount: controls −0.8 ± 0.5 / 0.7 ± 0.4; for Body Weight (g) Before administration: baseline of the 1 mg/kg group
Method: Obesity and Fatty Liver Model
The obesity and fatty liver model in this test example was handled by referring to the method described in WO02/09757.
That is, 10 weeks old KKA^y/Ta Jcl male mice were used as obese mice (N=from 4 to 7). The test compounds dissolved or suspended in an aqueous solution of 1% HCO60 (manufactured by NIPPON CHEMICALS COMPANY, LTD.) and an aqueous solution of 1% HCO60 (manufactured by NIPPON CHEMICALS COMPANY, LTD.) as a control group were administered once a day for 2 weeks continuously. The weights of the mice were measured every day and compared with the weights measured on the day before the administration. On the day next to the final day of administration of the drug, the livers were extracted and concentrations of triglycerides in the liver tissues were measured by using a measurement kit (TRIGLYCERIDE TEST WAKO, manufactured by WAKO PURE CHEMICAL […], LTD.).

human IBAT = target: T1, human IBAT (Homo sapiens, UniProt Q12908); experiment: In vitro assay of temporarily expressed human IBAT transporter using Cos 7 cells (Test Example 8); format: cell-based; conditions: Cos 7 cells temporarily expressing human IBAT; [3H] taurocholate 8 μM, 37° C., 60 minutes
T1 construct: expressed in transfected cells; host or cells: Cos 7
T1 sequence (Q12908 1-348): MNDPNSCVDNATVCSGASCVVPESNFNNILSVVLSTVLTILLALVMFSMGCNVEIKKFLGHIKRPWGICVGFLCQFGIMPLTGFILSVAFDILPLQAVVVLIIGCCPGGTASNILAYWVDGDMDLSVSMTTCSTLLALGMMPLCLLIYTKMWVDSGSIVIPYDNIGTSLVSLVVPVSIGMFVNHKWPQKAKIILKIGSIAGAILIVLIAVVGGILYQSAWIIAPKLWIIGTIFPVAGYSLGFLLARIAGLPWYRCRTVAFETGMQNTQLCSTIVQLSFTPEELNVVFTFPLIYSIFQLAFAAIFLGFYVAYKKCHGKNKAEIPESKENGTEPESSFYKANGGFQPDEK
Method in brief: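 Cos 7 cells transiently transfected with human or rat IBAT cDNA, assayed one day later in Hank's buffer with 25 mM glucose, 10 mM HEPES (pH 7.4) plus compound. Uptake of 8 μM [^3H]taurocholate over 60 min at 37 °C, stopped with 1 mM taurocholate washes; lysate radioactivity by scintillation counting.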

[1] = tested on: steatohepatitis model rats; experiment: Steatohepatitis model, choline-deficient diet (Test Example 15); format: in vivo, rat; conditions: 3 mg/kg oral once a day for 2 weeks; n = 4; average ± standard error
Source text: In this test example, the steatohepatitis model was examined referring to the method of Okan A., et al. (Dig Dis Sci 47:2389-2397, 2002).
That is, 7 weeks old Wistar rats were fed with a choline-deficient diet (manufactured by Oriental Yeast Co., Ltd.) for 2 weeks to prepare a steatohepatitis model. A suspension of a test compound in an aqueous solution of 0.5% methyl cellulose (manufactured by WAKO PURE CHEMICAL […], LTD.) and an aqueous solution of 0.5% methyl cellulose (manufactured by WAKO PURE CHEMICAL […], LTD.) as a control were orally administered once a day for consecutive 2 weeks. On the day next to the last day of administration, a blood sample was taken from the abdominal aorta and AST (GOT) and ALT (GPT) in the blood were measured by using measuring kits (GOTII-HA TEST WAKO and GPTII-HA TEST WAKO, respectively, the both were manufactured by WAKO PURE CHEMICAL […], LTD.) on an auto analyzer (NITTECH ANALYZER SUPER Z818).

Caco 2 cells = experiment: Toxicity with respect to alimentary canal: cytotoxicity to Caco 2, LDH activity (Test Example 12); format: cell-based, human; conditions: LDH activity after 2 hours, relative to cytolytic agent = 100%
Method in brief: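 Human Caco 2 intestinal cells, cultured 48 hours after seeding at 10,000 cells/well, received test compounds diluted in medium. LDH released into the medium after 2 hours was measured and expressed relative to cytolytic-agent-lysed cells (100%) as cytotoxicity.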

| IC50 (human IBAT) [nM] | Compound | Body Weight (g) 2 weeks later (KKAy/Ta Jcl obese mice) [g] | Liver triglyceride (KKAy/Ta Jcl obese mice) [mg/g] | Body Weight (g) Variation amount (KKAy/Ta Jcl obese mice) [g] | Body Weight (g) Before administration (KKAy/Ta Jcl obese mice) [g] | ALT [1] [IU/L] | AST [1] [IU/L] | Toxicity (%) to Caco 2 (Caco 2 cells; 3 μM) [%] | Toxicity (%) to Caco 2 (Caco 2 cells; 10 μM) [%] | Toxicity (%) to Caco 2 (Caco 2 cells; 30 μM) [%] |
| --- | --- | --- | --- | --- | --- | --- | --- | --- | --- | --- |
| 39 | CCCCC1(CCCC)CS(=O)(=O)c2ccc(N(C)C)cc2C(c2cccc(NC(=S)Nc3ccc(C[N+]4(Cc5ccccc5)CCC(O)CC4)cc3)c2)N1.[Br-] (stereo not drawn) [Example 3605] | 41.4 ± 1.0 | 65 ± 7 | -1.5 ± 0.4 | 42.9 ± 1.1 | 121 ± 36 | 80 ± 34 | <1 | <1 | <1 |
| 37 | CCCCC1(CCCC)CS(=O)(=O)c2ccc(N(C)C)cc2C(c2cccc(NC(=S)Nc3ccc(C[N+](C)(C)Cc4ccccc4)cc3)c2)N1.[Br-] (stereo not drawn) [Example 3440] | 43.9 ± 1.8 | 88 ± 6 | -0.7 ± 1.0 | 44.6 ± 0.8 | 167 ± 93 | 125 ± 34 | <1 | <1 | <1 |
| 39 | CCCCC1(CCCC)CS(=O)(=O)c2ccc(N(C)C)cc2C(c2cccc(NC(=S)Nc3ccc(C[N+]45CCC(c6ccccc6)(CC4)CC5)cc3)c2)N1.[Br-] (stereo not drawn) [Example 3696] | 42.2 ± 2.2 | 76 ± 12 | -1.3 ± 0.3 | 43.5 ± 1.3 | 145 ± 34 | 98 ± 23 | <1 | <1 | <1 |
| 41 | CCCCC1(CCCC)CS(=O)(=O)c2ccc(N(C)C)cc2C(c2cccc(NC(=S)Nc3ccc(C[n+]4cccc(CCC(=O)OC)c4)cc3)c2)N1.[Br-] (stereo not drawn) [Example 3752] | 41.5 ± 1.0 | 56 ± 23 | -2.3 ± 0.9 | 43.8 ± 1.2 | 88 ± 45 | 69 ± 98 | <1 | <1 | <1 |
| 32 | CCCCC1(CCCC)CS(=O)(=O)c2ccc(N(C)C)cc2C(c2cccc(NC(=S)Nc3ccc(C[n+]4ccccc4CCC)cc3)c2)N1.[Br-] (stereo not drawn) [Example 5408] | 42.2 ± 1.6 | 70 ± 11 | -1.8 ± 0.5 | 44.0 ± 0.9 | 149 ± 38 | 103 ± 45 | <1 | <1 | <1 |
| 37 | C#CC[N+](C)(Cc1ccccc1)Cc1ccc(NC(=S)Nc2cccc(C3NC(CCCC)(CCCC)CS(=O)(=O)c4ccc(N(C)C)cc43)c2)cc1 (stereo not drawn) [Example 3448] | 42.1 ± 3.2 | 74 ± 8 | -2.0 ± 0.7 | 44.1 ± 0.7 | 143 ± 79 | 134 ± 23 | <1 | <1 | <1 |
| 37 | CCCCC1(CCCC)CS(=O)(=O)c2ccc(N(C)C)cc2C(c2cccc(NC(=S)Nc3ccc(C[n+]4ccc(C(C)(C)C)cc4)cc3)c2)N1.[Br-] (stereo not drawn) [Example 3713] | 41.5 ± 2.4 | 59 ± 33 | -2.5 ± 0.6 | 44.0 ± 1.1 | 118 ± 36 | 77 ± 37 | <1 | <1 | <1 |
| 45 | CCCCC1(CCCC)CS(=O)(=O)c2ccc(N(C)C)cc2C(c2cccc(NC(=S)Nc3ccc(C[n+]4cccc(CCCO)c4)cc3)c2)N1.[Br-] (stereo not drawn) [Example 3747] | 42.2 ± 1.8 | 47 ± 23 | -2.1 ± 1.0 | 44.3 ± 0.8 | 102 ± 50 | 63 ± 86 | <1 | <1 | <1 |

| Compound | IC50 (human IBAT) [nM] | Body Weight (g) 2 weeks later (KKAy/Ta Jcl obese mice) [g] | Liver triglyceride (KKAy/Ta Jcl obese mice) [mg/g] | Body Weight (g) Variation amount (KKAy/Ta Jcl obese mice) [g] | Body Weight (g) Before administration (KKAy/Ta Jcl obese mice) [g] | ALT [1] [IU/L] | AST [1] [IU/L] | Toxicity (%) to Caco 2 (Caco 2 cells; 3 μM) [%] | Toxicity (%) to Caco 2 (Caco 2 cells; 10 μM) [%] | Toxicity (%) to Caco 2 (Caco 2 cells; 30 μM) [%] |
| --- | --- | --- | --- | --- | --- | --- | --- | --- | --- | --- |
| CCCCC1(CCCC)CS(=O)(=O)c2ccc(N(C)C)cc2C(c2cccc(NC(=S)CCCCC[N+]34CCC(CC3)CC4)c2)N1.[Br-] (stereo not drawn) [Example 1, 1-{5-[3-(3,3-Dibutyl-7-dimethylamino-1,1-dioxo-2,3,4,5-tetrahydro-1,4-benzothiazepin-5-yl)phenylthiocarbamoyl]pentyl}-1-azoniabicyclo[2.2.2]octane bromide] | 25 |  |  |  |  |  |  |  |  |  |
